Results: ChEMBL document CHEMBL1131824, “3-Alkyl-(5,5'-diphenyl)imidazolidineiones as new cannabinoid receptor ligands” (Bioorg Med Chem Lett, 1999)
Activity calls are given as the source filed them. The calls are words filed in the database; no cut-off is given here.

What was measured:
Cannabinoid receptor 1 [1] = target: T1, Cannabinoid receptor 1 (Homo sapiens, UniProt P21554); experiment: Displacement of [3H]-SR- 141716A binding to human CB1 receptor expressed in CHO cell membranes at the concentration of 10 uM
T1 sequence (P21554 whole entry): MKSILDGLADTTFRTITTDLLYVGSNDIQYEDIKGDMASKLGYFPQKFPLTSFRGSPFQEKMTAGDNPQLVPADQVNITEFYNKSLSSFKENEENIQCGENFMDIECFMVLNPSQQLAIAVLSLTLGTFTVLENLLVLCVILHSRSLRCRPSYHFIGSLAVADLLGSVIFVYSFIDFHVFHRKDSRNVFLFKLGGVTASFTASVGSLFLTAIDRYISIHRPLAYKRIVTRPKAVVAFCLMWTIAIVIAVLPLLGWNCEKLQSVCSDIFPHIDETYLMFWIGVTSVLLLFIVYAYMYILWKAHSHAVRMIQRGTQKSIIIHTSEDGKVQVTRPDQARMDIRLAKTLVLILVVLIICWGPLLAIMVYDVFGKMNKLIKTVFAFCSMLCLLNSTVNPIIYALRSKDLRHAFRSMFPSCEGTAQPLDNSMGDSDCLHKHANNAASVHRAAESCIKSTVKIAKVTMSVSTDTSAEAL

Cannabinoid receptor 1 [2] = target: T1, Cannabinoid receptor 1; experiment: Displacement of [3H]-SR- 141716A binding to human CB1 receptor expressed in CHO cell membranes at the concentration of 1 uM
Cannabinoid receptor 1 [3] = target: T1, Cannabinoid receptor 1; experiment: Ability to displace [3H]-SR- 141716A binding to CB1 receptor expressed in CHO cell membrane; type: cell membranes
Cannabinoid receptor 1 [4] = target: T1, Cannabinoid receptor 1; experiment: Displacement of [3H]-SR- 141716A binding to human CB1 receptor expressed in CHO cell membranes at the concentration of 10 uM; Not significant
Cannabinoid receptor 1 [5] = target: T1, Cannabinoid receptor 1; experiment: biochemical; type: cell-based, CHO
Cannabinoid receptor 1 [6] = target: T1, Cannabinoid receptor 1; experiment: Binding affinity for brain CBI receptor was determined

Row | Compound | Displacement (Cannabinoid receptor 1 [1]) [%] | further results
1 | CCCCN1C(=O)NC(c2ccccc2)(c2ccccc2)C1=O | 25.1 | 
2 | CCCCCCN1C(=O)NC(c2ccc(Br)cc2)(c2ccc(Br)cc2)C1=O | 72.1 | Displacement (Cannabinoid receptor 1 [2]): 30.2%
3 | O=C1NC(c2ccc(Br)cc2)(c2ccc(Br)cc2)C(=O)N1CCCO | 88.4 | Ki (Cannabinoid receptor 1 [3]): 103 nM; Displacement (Cannabinoid receptor 1 [2]): 50.2%
4 | CCCCCCCN1C(=O)NC(c2ccc(Br)cc2)(c2ccc(Br)cc2)C1=O | 89.2 | Ki (Cannabinoid receptor 1 [3]): 97.9 nM; Displacement (Cannabinoid receptor 1 [2]): 51.5%
5 | O=C1NC(c2ccccc2)(c2ccccc2)C(=O)N1CCN1CCOCC1 | < 5 | 
6 | O=C1NC(c2ccccc2)(c2ccccc2)C(=O)N1Cc1ccccc1 | 40.6 | 
7 | CCCCCCN1C(=O)NC(c2ccc(F)cc2)(c2ccc(F)cc2)C1=O | 40.6 | 
8 | CCCCCCCCN1C(=O)NC(c2ccccc2)(c2ccccc2)C1=O | 61.2 | 
9 | CCCCCCCN1C(=O)NC(c2ccc(F)cc2)(c2ccc(F)cc2)C1=O | 51.4 | 
10 | CCCCCCN1C(=O)NC(c2ccc(OC)cc2)(c2ccc(OC)cc2)C1=O | 66.6 | Displacement (Cannabinoid receptor 1 [2]): 23%
11 | CCCCCCCCN1C(=O)NC(c2ccc(F)cc2)(c2ccc(F)cc2)C1=O | 62.5 | Displacement (Cannabinoid receptor 1 [2]): 15.3%
12 | O=C1NC(=O)C(c2ccccc2)(c2ccccc2)N1 |  | Displacement (Cannabinoid receptor 1 [4]): inactive
13 | CCCCCCCCN1C(=O)NC(c2ccc(Br)cc2)(c2ccc(Br)cc2)C1=O | 80 | Displacement (Cannabinoid receptor 1 [2]): 48.2%
14 | Cc1ccc(C2(c3ccc(C)cc3)NC(=O)N(CCN3CCOCC3)C2=O)cc1 | 23.9 | 
15 | CCCCCCN1C(=O)NC(c2ccccc2)(c2ccccc2)C1=O | 35.6 | 
16 | CCCN1C(=O)NC(c2ccccc2)(c2ccccc2)C1=O | < 20 | 

Row | Compound | Displacement (Cannabinoid receptor 1 [1]) [%] | further results
17 | CCCCCCC(C)(C)c1cc(O)c2c(c1)OC(C)(C)[C@@H]1CCC(CO)C[C@@H]21 (stereo partly specified) |  | Ki (Cannabinoid receptor 1 [5]): 0.82 nM
18 | COc1ccc(C2(c3ccc(OC)cc3)NC(=O)N(CCN3CCOCC3)C2=O)cc1 | 21.7 | 
19 | CCCCCN1C(=O)NC(c2ccccc2)(c2ccccc2)C1=O | 35.4 | 
20 | O=C1NC(=O)C(c2ccc(Br)cc2)(c2ccc(Br)cc2)N1 |  | Displacement (Cannabinoid receptor 1 [4]): inactive
21 | O=C1NC(c2ccccc2)(c2ccccc2)C(=O)N1C1CC1 | < 5 | 
22 | CN(C)CCN1C(=O)NC(c2ccccc2)(c2ccccc2)C1=O | < 5 | 
23 | CCCCCCCN1C(=O)NC(c2ccc(C)cc2)(c2ccc(C)cc2)C1=O | 51.3 | 
24 | O=C1NC(c2ccccc2)(c2ccccc2)C(=O)N1CCN1CCCCC1 | < 15 | 
25 | COc1ccc(C2(c3ccc(OC)cc3)NC(=O)NC2=O)cc1 |  | Displacement (Cannabinoid receptor 1 [4]): inactive
26 | O=C1NC(=O)C(c2ccc(F)cc2)(c2ccc(F)cc2)N1 |  | Displacement (Cannabinoid receptor 1 [4]): inactive
27 | O=C1NC(c2ccc(Br)cc2)(c2ccc(Br)cc2)C(=O)N1CCN1CCOCC1 | 91.2 | Ki (Cannabinoid receptor 1 [3]): 70.3 nM; Displacement (Cannabinoid receptor 1 [2]): 54.1%
28 | Cc1ccc(C2(c3ccc(C)cc3)NC(=O)NC2=O)cc1 |  | Displacement (Cannabinoid receptor 1 [4]): inactive
29 | O=C1NC(c2ccc(F)cc2)(c2ccc(F)cc2)C(=O)N1CCN1CCOCC1 | 30.3 | 
30 | CCCCCn1ccc(C(=O)c2cccc3ccccc23)c1 |  | Ki (Cannabinoid receptor 1 [6]): 87 nM
31 | CCCCCCN1C(=O)NC(c2ccc(C)cc2)(c2ccc(C)cc2)C1=O | 46.8 | 
